Data on seven compounds can be found in patent US9340590B2 (priority 2011, dated 2016).

What all share (assay): cell-based
For one assay, the target named is hNav1.3 (Homo sapiens, UniProt Q9NY46). The settings on record: IonWorks Quattro, read-out: IWQ Use Nav1.3. Background: The patch-clamp technique gives a direct electrical read-out from membranes.
The target in another assay is hNav1.7 (Homo sapiens, UniProt Q15858). It is filed as cell-based. The settings on record: IonWorks Quattro, read-out: IWQ Use Nav1.7.
hNav1.7, sequence (Q15858 whole entry, looked up): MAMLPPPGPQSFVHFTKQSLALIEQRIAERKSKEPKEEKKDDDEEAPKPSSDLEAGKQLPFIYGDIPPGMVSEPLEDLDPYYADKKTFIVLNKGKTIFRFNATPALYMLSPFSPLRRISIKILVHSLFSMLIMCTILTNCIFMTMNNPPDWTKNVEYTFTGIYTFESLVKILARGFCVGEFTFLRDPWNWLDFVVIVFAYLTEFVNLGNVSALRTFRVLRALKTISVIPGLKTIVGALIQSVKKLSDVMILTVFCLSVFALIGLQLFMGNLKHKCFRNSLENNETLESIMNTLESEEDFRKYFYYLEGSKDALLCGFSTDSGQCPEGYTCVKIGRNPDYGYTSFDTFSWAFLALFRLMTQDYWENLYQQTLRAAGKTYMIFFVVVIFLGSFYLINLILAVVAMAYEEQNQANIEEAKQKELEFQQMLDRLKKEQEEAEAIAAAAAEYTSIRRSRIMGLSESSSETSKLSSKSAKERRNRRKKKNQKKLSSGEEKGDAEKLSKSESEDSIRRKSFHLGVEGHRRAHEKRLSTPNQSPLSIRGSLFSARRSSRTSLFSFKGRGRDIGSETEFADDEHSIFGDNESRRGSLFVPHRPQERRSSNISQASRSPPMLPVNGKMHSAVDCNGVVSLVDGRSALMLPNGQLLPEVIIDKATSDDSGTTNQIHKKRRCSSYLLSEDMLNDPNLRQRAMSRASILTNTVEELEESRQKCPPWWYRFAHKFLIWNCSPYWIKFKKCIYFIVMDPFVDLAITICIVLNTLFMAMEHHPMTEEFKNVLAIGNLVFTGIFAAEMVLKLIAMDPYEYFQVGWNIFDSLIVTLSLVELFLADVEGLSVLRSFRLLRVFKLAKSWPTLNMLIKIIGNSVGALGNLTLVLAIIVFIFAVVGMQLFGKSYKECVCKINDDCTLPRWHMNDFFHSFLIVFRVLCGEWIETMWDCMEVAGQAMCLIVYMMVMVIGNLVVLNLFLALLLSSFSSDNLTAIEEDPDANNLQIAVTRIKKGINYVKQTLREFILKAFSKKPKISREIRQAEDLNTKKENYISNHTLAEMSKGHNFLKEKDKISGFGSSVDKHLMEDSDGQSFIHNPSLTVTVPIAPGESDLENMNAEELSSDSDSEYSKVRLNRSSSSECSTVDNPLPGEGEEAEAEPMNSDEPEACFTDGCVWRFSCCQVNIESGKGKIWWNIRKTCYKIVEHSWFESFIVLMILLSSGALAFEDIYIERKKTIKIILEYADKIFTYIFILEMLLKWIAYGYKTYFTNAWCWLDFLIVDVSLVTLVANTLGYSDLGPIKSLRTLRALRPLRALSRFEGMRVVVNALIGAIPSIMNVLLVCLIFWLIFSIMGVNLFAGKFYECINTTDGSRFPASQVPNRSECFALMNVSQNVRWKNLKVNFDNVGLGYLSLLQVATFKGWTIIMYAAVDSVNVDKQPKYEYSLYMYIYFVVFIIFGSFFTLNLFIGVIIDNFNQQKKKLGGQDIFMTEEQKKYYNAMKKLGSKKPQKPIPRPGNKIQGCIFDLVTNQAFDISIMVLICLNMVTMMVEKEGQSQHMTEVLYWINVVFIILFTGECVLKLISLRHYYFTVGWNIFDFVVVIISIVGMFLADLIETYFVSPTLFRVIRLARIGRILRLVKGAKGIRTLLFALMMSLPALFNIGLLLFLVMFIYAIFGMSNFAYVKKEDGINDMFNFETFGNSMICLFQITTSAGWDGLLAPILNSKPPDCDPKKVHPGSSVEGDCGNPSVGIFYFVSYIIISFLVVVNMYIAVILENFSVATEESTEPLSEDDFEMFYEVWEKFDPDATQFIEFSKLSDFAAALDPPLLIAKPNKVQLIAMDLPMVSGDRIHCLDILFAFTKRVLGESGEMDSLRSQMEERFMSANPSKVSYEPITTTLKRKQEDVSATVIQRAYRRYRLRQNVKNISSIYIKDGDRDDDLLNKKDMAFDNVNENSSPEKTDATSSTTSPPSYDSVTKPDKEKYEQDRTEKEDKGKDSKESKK
The next assay addresses hNav1.5 (Homo sapiens, UniProt Q14524). To be noted: IonWorks Quattro, read-out: IWQ Use Nav1.5.
[1] abbreviates: clamped to −110 mV, depolarized to −10 mV, 5 min after compound, n=2.

Where two headings read alike, the source gives them in different places. Positions of bridges follow the written chain, without caps; N, C: chain ends. Non-standard residues stand in square brackets, D forms with d. Residues, ends and D or L forms follow the SMILES beside them. Abu = CC[C@H](N)C(=O)O

hNav1.3, sequence (Q9NY46 whole entry, looked up): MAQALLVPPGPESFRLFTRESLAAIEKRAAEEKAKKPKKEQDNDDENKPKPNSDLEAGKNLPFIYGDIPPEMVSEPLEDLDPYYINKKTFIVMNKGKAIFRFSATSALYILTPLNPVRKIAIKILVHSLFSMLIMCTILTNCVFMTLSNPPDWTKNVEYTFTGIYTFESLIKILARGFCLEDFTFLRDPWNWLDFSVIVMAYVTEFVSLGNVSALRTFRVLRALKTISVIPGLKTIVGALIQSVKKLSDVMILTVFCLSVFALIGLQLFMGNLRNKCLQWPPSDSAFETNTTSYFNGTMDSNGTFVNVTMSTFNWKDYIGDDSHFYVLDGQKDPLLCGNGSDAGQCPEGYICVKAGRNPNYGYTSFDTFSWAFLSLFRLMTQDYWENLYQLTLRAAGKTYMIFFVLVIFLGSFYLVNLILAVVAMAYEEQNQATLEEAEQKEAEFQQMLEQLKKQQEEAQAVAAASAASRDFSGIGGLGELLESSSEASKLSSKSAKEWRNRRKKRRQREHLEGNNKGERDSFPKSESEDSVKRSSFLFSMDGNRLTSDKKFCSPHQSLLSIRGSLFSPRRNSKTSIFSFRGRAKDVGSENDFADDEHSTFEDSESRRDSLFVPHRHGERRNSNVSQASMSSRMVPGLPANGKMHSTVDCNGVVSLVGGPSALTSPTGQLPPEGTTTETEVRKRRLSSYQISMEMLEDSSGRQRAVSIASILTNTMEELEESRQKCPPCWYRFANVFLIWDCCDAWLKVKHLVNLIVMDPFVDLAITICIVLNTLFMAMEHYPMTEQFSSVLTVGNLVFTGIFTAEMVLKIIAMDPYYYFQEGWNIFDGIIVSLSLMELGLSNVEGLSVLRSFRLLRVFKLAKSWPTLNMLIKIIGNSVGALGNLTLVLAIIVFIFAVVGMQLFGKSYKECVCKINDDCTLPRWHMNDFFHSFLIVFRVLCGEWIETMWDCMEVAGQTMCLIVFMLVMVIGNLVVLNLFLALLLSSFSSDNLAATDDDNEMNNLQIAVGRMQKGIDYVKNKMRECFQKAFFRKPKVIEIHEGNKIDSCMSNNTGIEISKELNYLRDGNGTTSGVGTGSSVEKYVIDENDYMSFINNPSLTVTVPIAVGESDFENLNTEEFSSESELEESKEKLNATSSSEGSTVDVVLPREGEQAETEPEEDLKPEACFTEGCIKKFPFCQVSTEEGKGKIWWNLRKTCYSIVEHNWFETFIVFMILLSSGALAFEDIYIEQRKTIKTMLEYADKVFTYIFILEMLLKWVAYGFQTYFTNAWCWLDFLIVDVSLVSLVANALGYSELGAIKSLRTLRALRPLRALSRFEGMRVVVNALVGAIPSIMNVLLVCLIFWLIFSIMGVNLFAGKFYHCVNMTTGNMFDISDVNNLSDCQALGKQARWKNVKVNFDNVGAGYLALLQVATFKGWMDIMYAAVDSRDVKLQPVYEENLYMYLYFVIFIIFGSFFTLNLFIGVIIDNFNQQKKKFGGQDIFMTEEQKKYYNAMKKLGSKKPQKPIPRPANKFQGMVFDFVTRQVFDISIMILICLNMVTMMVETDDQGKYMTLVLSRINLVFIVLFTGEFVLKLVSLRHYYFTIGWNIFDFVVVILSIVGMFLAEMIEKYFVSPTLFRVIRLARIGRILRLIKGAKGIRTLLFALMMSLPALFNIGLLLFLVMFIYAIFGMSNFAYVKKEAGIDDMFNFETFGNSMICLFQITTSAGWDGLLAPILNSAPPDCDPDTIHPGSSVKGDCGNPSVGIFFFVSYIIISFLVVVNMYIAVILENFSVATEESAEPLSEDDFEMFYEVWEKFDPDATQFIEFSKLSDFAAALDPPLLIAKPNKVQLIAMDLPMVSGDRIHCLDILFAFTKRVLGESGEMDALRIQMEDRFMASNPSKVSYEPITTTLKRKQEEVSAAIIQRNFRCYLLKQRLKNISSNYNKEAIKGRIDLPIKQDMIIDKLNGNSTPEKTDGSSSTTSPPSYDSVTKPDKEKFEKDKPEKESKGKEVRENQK

In the case of `CC[C@H](C)[C@@H]1NC(=O)[C@@H]2CSSC[C@@H]3NC(=O)[C@H](C(C)C)NC(=O)[C@H](CC(C)C)NC(=O)[C@H](CC(N)=O)NC(=O)[C@@H]4CCCN4C(=O)[C@H](CCCNC(=N)N)NC(=O)[C@H](CSSC[C@H](NC(=O)[C@@H](N)CC(=O)O)C(=O)N[C@@H](CC(C)C)C(=O)NCC(=O)N[C@@H](Cc4ccccc4)C(=O)N[C@@H](CCSC)C(=O)N[C@@H](CCCNC(=N)N)C(=O)N[C@@H](CCCCN)C(=O)N2)NC(=O)[C@H](CSSC[C@@H](C(=O)N[C@@H](CCCCN)C(=O)N[C@@H](Cc2ccc(O)cc2)C(=O)N[C@H](C(=O)N[C@@H](Cc2ccccc2)C(N)=O)C(C)C)NC(=O)[C@H](Cc2c[nH]c4ccccc24)NC(=O)[C@H](CCCCN)NC(=O)[C@H](Cc2c[nH]cn2)NC(=O)[C@H](Cc2ccccc2)NC(=O)[C@H](CCCNC(=N)N)NC(=O)[C@H](CO)NC3=O)NC(=O)[C@H](CCCCN)NC(=O)[C@H](CC(=O)O)NC(=O)[C@H](CC(N)=O)NC(=O)[C@H](CC(=O)O)NC(=O)[C@@H]2CCCN2C1=O` [compound 341] (H-DCLGFMRKCIPDNDKCCRPNLVCSRFHKWCKYVF-NH2; disulfide 2-17, 9-23, 16-30), the IC50 on hNav1.3 (Table 22, use, […]) turned out to be 0.1 µM; on hNav1.7 (Table 22, use, […]) it was 0.08 µM; at hNav1.5 (Table 22, use, […]), 5.88 µM.
With `CC[C@H](C)[C@@H]1NC(=O)[C@@H]2CSSC[C@@H]3NC(=O)[C@H](C(C)C)NC(=O)[C@H](CC(C)C)NC(=O)[C@H](CC(N)=O)NC(=O)[C@@H]4CCCN4C(=O)[C@H](CCCNC(=N)N)NC(=O)[C@H](CSSC[C@H](NC(=O)[C@@H](N)CC(=O)O)C(=O)N[C@@H](CC(C)C)C(=O)NCC(=O)N[C@@H](Cc4ccccc4)C(=O)N[C@@H](CCSC)C(=O)N[C@@H](CCCNC(=N)N)C(=O)N[C@@H](CCCCN)C(=O)N2)NC(=O)[C@H](CSSC[C@@H](C(=O)N[C@@H](CCCCN)C(=O)N[C@@H](Cc2ccc(O)cc2)C(=O)N[C@H](C(=O)N[C@@H](Cc2ccc(C(=O)O)cc2)C(N)=O)C(C)C)NC(=O)[C@H](Cc2c[nH]c4ccccc24)NC(=O)[C@H](CCCCN)NC(=O)[C@H](Cc2c[nH]cn2)NC(=O)[C@H]([C@@H](C)O)NC(=O)[C@H](CCCNC(=N)N)NC(=O)[C@H](CO)NC3=O)NC(=O)[C@H](CCCCN)NC(=O)[C@H](CC(=O)O)NC(=O)[C@H](CC(N)=O)NC(=O)[C@H](CC(=O)O)NC(=O)[C@@H]2CCCN2C1=O` [compound 410], the IC50 amounted to 6.31 µM on hNav1.3 (use-dependent, […]); 9.19 µM on hNav1.7 (use-dependent, […]); 7.11 µM on hNav1.5 (use-dependent, […]).
For `CC[C@H](C)[C@@H]1NC(=O)[C@@H]2CSSC[C@@H]3NC(=O)[C@H](C(C)C)NC(=O)[C@H](CC(C)C)NC(=O)[C@H](CC(N)=O)NC(=O)[C@@H]4CCCN4C(=O)[C@H](CCCNC(=N)N)NC(=O)[C@H](CSSC[C@H](NC(=O)[C@@H](N)CC(=O)O)C(=O)N[C@@H](CC(C)C)C(=O)NCC(=O)N[C@@H](Cc4ccccc4)C(=O)N[C@@H](CCSC)C(=O)N[C@@H](CCCNC(=N)N)C(=O)N[C@@H](CCCCN)C(=O)N2)NC(=O)[C@H](CSSC[C@@H](C(=O)N[C@@H](CCCCN)C(=O)N[C@@H](Cc2ccc(O)cc2)C(=O)N[C@H](C(=O)N[C@@H](Cc2ccccc2)C(N)=O)C(C)C)NC(=O)[C@H](Cc2c[nH]c4ccccc24)NC(=O)[C@H](CCCCN)NC(=O)[C@H](Cc2cnc[nH]2)NC(=O)[C@H]([C@@H](C)O)NC(=O)[C@H](CCCNC(=N)N)NC(=O)[C@H](CCC(=O)O)NC3=O)NC(=O)[C@H](CCCCN)NC(=O)[C@H](CC(=O)O)NC(=O)[C@H](CC(N)=O)NC(=O)[C@H](CC(=O)O)NC(=O)[C@@H]2CCCN2C1=O` [compound 150] (H-DCLGFMRKCIPDNDKCCRPNLVCERTHKWCKYVF-NH2; disulfide 2-17, 9-23, 16-30), the IC50 came out at 6.78 µM at hNav1.3 (Use), 6.12 µM on hNav1.7 (Use) and 11.5 µM at hNav1.5 (Use).
Turning to `CC[C@H](C)[C@@H]1NC(=O)[C@@H]2CSSC[C@@H]3NC(=O)[C@H](C(C)C)NC(=O)[C@H](CC(C)C)NC(=O)[C@H](CC(N)=O)NC(=O)[C@@H]4CCCN4C(=O)[C@H](CCCNC(=N)N)NC(=O)[C@H](CSSC[C@H](NC(=O)[C@@H](N)CC(=O)O)C(=O)N[C@@H](CC(C)C)C(=O)NCC(=O)N[C@@H](C)C(=O)N[C@@H](Cc4ccccc4)C(=O)N[C@@H](CCCNC(=N)N)C(=O)N[C@@H](CCCCN)C(=O)N2)NC(=O)[C@H](CSSC[C@@H](C(=O)N[C@@H](CCCCN)C(=O)N[C@@H](Cc2ccc(O)cc2)C(=O)N[C@H](C(=O)N[C@@H](Cc2ccccc2)C(=O)O)C(C)C)NC(=O)[C@H](Cc2c[nH]c4ccccc24)NC(=O)[C@H](CCCNC(=N)N)NC(=O)[C@H](Cc2c[nH]cn2)NC(=O)[C@H]([C@@H](C)O)NC(=O)[C@H](CCCNC(=N)N)NC(=O)[C@H](CO)NC3=O)NC(=O)[C@H](CCCCN)NC(=O)[C@H](CC(=O)O)NC(=O)[C@@H]2CCCN2C(=O)[C@H](CC(=O)O)NC(=O)[C@@H]2CCCN2C1=O` [compound 846], the IC50 is 2.9 µM on hNav1.3 (use-dependent block, hNav1.3); 2.9 µM on hNav1.7 (use-dependent block, hNav1.7); over 5 µM at hNav1.5 (use-dependent block, hNav1.5).
In the case of `CC[C@H](C)[C@@H]1NC(=O)[C@@H]2CSSC[C@@H]3NC(=O)[C@H](C(C)C)NC(=O)[C@H](CC(C)C)NC(=O)[C@H](CC(N)=O)NC(=O)[C@@H]4CCCN4C(=O)[C@H](CCCNC(=N)N)NC(=O)[C@H](CSSC[C@H](NC(=O)[C@@H](N)CC(=O)O)C(=O)N[C@@H](CC(C)C)C(=O)NCC(=O)N[C@@H](C)C(=O)N[C@@H](CC(C)C)C(=O)N[C@@H](CCCNC(=N)N)C(=O)N[C@@H](CCCCN)C(=O)N2)NC(=O)[C@H](CSSC[C@@H](C(=O)N[C@@H](CCCCN)C(=O)N[C@@H](Cc2ccc(O)cc2)C(=O)N[C@H](C(=O)N[C@@H](Cc2ccccc2)C(=O)N[C@@H](Cc2c[nH]c4ccccc24)C(=O)O)C(C)C)NC(=O)[C@H](Cc2c[nH]c4ccccc24)NC(=O)[C@H](CCCNC(=N)N)NC(=O)[C@H](Cc2c[nH]cn2)NC(=O)[C@H]([C@@H](C)O)NC(=O)[C@H](CCCNC(=N)N)NC(=O)[C@H](CO)NC3=O)NC(=O)[C@H](CCCCN)NC(=O)[C@H](CC(=O)O)NC(=O)[C@H](CC(N)=O)NC(=O)[C@H](CC(=O)O)NC(=O)[C@@H]2CCCN2C1=O` [compound 814] (H-DCLGALRKCIPDNDKCCRPNLVCSRTHRWCKYVFW-OH; disulfide 2-17, 9-23, 16-30), the IC50 is 0.6 µM on hNav1.3 (use-dependent block, hNav1.3); 0.6 µM at hNav1.7 (use-dependent block, hNav1.7); over 5 µM at hNav1.5 (use-dependent block, hNav1.5).
As to `CC[C@H](C)[C@@H]1NC(=O)[C@@H]2CSSC[C@@H]3NC(=O)[C@H](C(C)C)NC(=O)[C@H](CC(C)C)NC(=O)[C@H](CC(N)=O)NC(=O)[C@@H]4CCCN4C(=O)[C@H](CCCNC(=N)N)NC(=O)[C@H](CSSC[C@H](NC(=O)[C@@H](N)CC(=O)O)C(=O)N[C@@H](CC(C)C)C(=O)NCC(=O)N[C@@H](Cc4ccccc4)C(=O)N[C@@H]([C@@H](C)O)C(=O)N[C@@H](CCCNC(=N)N)C(=O)N[C@@H](CCCCN)C(=O)N2)NC(=O)[C@H](CSSC[C@@H](C(=O)N[C@@H](CCCCN)C(=O)N[C@@H](Cc2ccc(O)cc2)C(=O)N[C@H](C(=O)N[C@@H](Cc2ccccc2)C(N)=O)C(C)C)NC(=O)[C@H](Cc2c[nH]c4ccccc24)NC(=O)[C@H](CCCCN)NC(=O)[C@H](Cc2c[nH]cn2)NC(=O)[C@H]([C@@H](C)O)NC(=O)[C@H](CCCNC(=N)N)NC(=O)[C@H](CO)NC3=O)NC(=O)[C@H](CCCCN)NC(=O)[C@H](CC(=O)O)NC(=O)[C@H](CC(N)=O)NC(=O)[C@H](CC(=O)O)NC(=O)[C@@H]2CCCN2C1=O` [SEQ ID NO: 285] (H-DCLGFTRKCIPDNDKCCRPNLVCSRTHKWCKYVF-NH2; disulfide 2-17, 9-23, 16-30), the IC50 on hNav1.3 (setting [1]) amounted to 0.28 µM; at hNav1.7 (setting [1]), 0.59 µM; at hNav1.5 (setting [1]), 18.7 µM.
In the case of `CC[C@@H]1NC(=O)CNC(=O)[C@H](CC(C)C)NC(=O)[C@@H](NC(=O)[C@@H](N)CC(=O)O)CSSC[C@@H]2NC(=O)[C@@H]3CSSC[C@@H](C(=O)N[C@@H](CCCCN)C(=O)N[C@@H](Cc4ccc(O)cc4)C(=O)N[C@H](C(=O)N[C@@H](Cc4ccccc4)C(N)=O)C(C)C)NC(=O)[C@H](Cc4c[nH]c5ccccc45)NC(=O)[C@H](CCCCN)NC(=O)[C@H](Cc4c[nH]cn4)NC(=O)[C@H]([C@@H](C)O)NC(=O)[C@H](CCCNC(=N)N)NC(=O)[C@H](CO)NC(=O)[C@H](CSSC[C@H](NC(=O)[C@H](CCCCN)NC(=O)[C@H](CCCNC(=N)N)NC(=O)[C@H](Cc4ccccc4)NC1=O)C(=O)N[C@@H]([C@@H](C)CC)C(=O)N1CCC[C@H]1C(=O)N[C@@H](CC(=O)O)C(=O)N[C@@H](CC(N)=O)C(=O)N[C@@H](CC(=O)O)C(=O)N[C@@H](CCCCN)C(=O)N3)NC(=O)[C@H](C(C)C)NC(=O)[C@H](CC(C)C)NC(=O)[C@H](CC(N)=O)NC(=O)[C@@H]1CCCN1C(=O)[C@H](CCCNC(=N)N)NC2=O` [compound 605] (H-DCLG[Abu]FRKCIPDNDKCCRPNLVCSRTHKWCKYVF-NH2; disulfide 2-17, 9-23, 16-30), the IC50 on hNav1.3 (use-dependent block, hNav1.3) stood at 0.36 µM; on hNav1.7 (use-dependent block, hNav1.7), 0.17 µM; on hNav1.5 (use-dependent block, hNav1.5) it was 9.5 µM.
